Experimental data taken from patent US6399654B1, “Biflavanoids and derivatives thereof as antiviral agents” (priority 1995, dated 2002).
≈ marks a conversion by molar mass, not a printed value. Like-named read-outs stand apart in the source and are kept apart here.

Tests used:
in vitro [1] = conditions: dog, Neutral Red IC50 (cytotoxic)
[2] = Cytotoxicity by neutral red dye uptake, A549 cells; conditions: human
HSV-2 = HSV-2 CPE inhibition in HFF cells; conditions: for HSV-2 SI (CC50/EC50): HFF Cells; for EC50: Human alphaherpesvirus 2, HFF, read-out: HSV-2 CPE Inhibition EC50
VZV = VZV plaque reduction assay in HFF cells; conditions: for VZV SI (CC50/EC50): HFF Cells; for EC50: Human alphaherpesvirus 3, HFF, read-out: VZV Plaque Reduction EC50
[3] = tested on: Respiratory Syncytial Virus; test: microbe, parasite or virus in culture; type: cell-based; conditions: human respiratory syncytial virus, MA104; read-out: CPE Inhibition EC50
[4] = tested on: Parainfluenza Type 3 Virus; test: organism not typed; type: cell-based; conditions: MA104; Parainfluenza Type 3 Virus; read-out: CPI Inhibition EC50
[5] = Cytotoxicity by neutral red dye uptake, BSC-1 cells; conditions: African green monkey
[6] = tested on: Influenza A (H1N1) Texas/36/91; test: microbe, parasite or virus in culture; type: cell-based, influenza A virus; conditions: Influenza A virus, MDCK; Influenza A (H1N1) Texas/36/91; read-out: Neutral Red EC50
[7] = tested on: Influenza A (H1N1) Texas/36/91; test: microbe, parasite or virus in culture; type: cell-based, influenza A virus; conditions: Influenza A virus, MDCK; Influenza A (H1N1) Texas/36/91; read-out: CPE Inhibition EC50
Hepatitis B Virus (HBV) = test: Inhibition of HBV replication in 2.2.15 cells, extracellular (virion) HBV DNA; conditions: for anti-HBV activity (in words): 2.2.15 cells; for EC50 / EC90: Hepatitis B virus, 216 h; for EC50: read-out: EC50 (50% effective dose), HBV Virion, 2.2.15 cells, extracellular (virion) HBV DNA, 9 days treatment; for EC90: read-out: EC90 (90% effective dose), HBV Virion, 2.2.15 cells, extracellular (virion) HBV DNA, 9 days treatment;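 as to all read-outs here: extracellular virion HBV DNA in culture medium measured by slot blot hybridization with a 32P-labeled HBV probe, quantified against HBV DNA standards, after 9 days of daily dosing, compared with day 0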
Adenovirus Type 5 [8] = test: Adenovirus type 5 neutral red dye uptake in A549 cells; type: cell-based; conditions: Human mastadenovirus C, A549; Adenovirus Type 5; read-out: Neutral Red EC50
Measles Virus [9] = test: Measles virus neutral red dye uptake in BSC-1 cells; type: cell-based; conditions: Measles morbillivirus, BSC-1
Measles Virus [10] = test: microbe, parasite or virus in culture; type: cell-based; conditions: Measles morbillivirus, BSC-1; Measles Virus; read-out: CPI Inhibition EC50
[11] = tested on: Parainfluenza Type 3 Virus; test: organism not typed; type: cell-based; conditions: MA104, read-out: Neutral Red EC50
Influenza B Panama/45/90 [12] = test: microbe, parasite or virus in culture; type: cell-based; conditions: Influenza B virus, MDCK, read-out: Neutral Red EC50
Influenza B Panama/45/90 [13] = test: microbe, parasite or virus in culture; type: cell-based; conditions: Influenza B virus, MDCK; Influenza B Panama/45/90; read-out: CPE Inhibition EC50
HIV-1 RT = target: T1, HIV-1 RT (Human immunodeficiency virus type 1 group M subtype B, UniProt P03366); test: Anti-HIV-1 RT assay (recombinant enzyme); type: biochemical; conditions: for inhibition at 200 µg/mL: read-out: Anti-HIV-1 RT % Inhibition at 200 μg/ml; for Anti-HIV-1 RT IC50: values in parentheses or in words
T1 construct: made in house; host or cells: Escherichia coli

[14] = Cytotoxicity by neutral red dye uptake, MA-104 cells; conditions: African green monkey, Neutral Red IC50 (cytotoxic)
Adenovirus Type 5 [15] = test: microbe, parasite or virus in culture; type: cell-based; conditions: Human mastadenovirus C, A549, read-out: CPE Inhibition EC50
[16] = tested on: Influenza A (H3N2) Beijing/32/92; test: microbe, parasite or virus in culture; type: cell-based, influenza A virus; conditions: Influenza A virus, MDCK; Influenza A (H3N2) Beijing/32/92; read-out: CPE Inhibition EC50
in vitro [17] = conditions: African green monkey
in vitro [18] = conditions: human
[19] = tested on: Influenza A (H3N2) Beijing/32/92; test: microbe, parasite or virus in culture; type: cell-based, influenza A virus; conditions: Influenza A virus, MDCK; Influenza A (H3N2) Beijing/32/92; read-out: Neutral Red EC50
[20] = Cytotoxicity (CC50) in HFF cells in the herpes virus tests; conditions: human
in vitro [21] = conditions: African green monkey; remark: listed apart in the source
HSV-1 = HSV-1 CPE inhibition in HFF cells; conditions: for HSV-1 SI (CC50/EC50): HFF Cells; for EC50: Human alphaherpesvirus 1, HFF, read-out: HSV-1 CPE Inhibition EC50
[22] = tested on: Respiratory Syncytial Virus; test: microbe, parasite or virus in culture; type: cell-based; conditions: human respiratory syncytial virus, MA104; read-out: Neutral Red EC50
in vitro [23] = conditions: dog
HCMV = HCMV CPE inhibition in HFF cells; conditions: for HCMV SI (CC50/EC50): HFF Cells; for EC50: Human betaherpesvirus 5, HFF, read-out: HCMV CPE Inhibition EC50
HFF Cells = test: Cytotoxicity (CC50) in HFF cells in the herpes virus tests; conditions: HFF Cells, HSV-2 test
[24] = Parainfluenza Type 3 Virus test
[25] = Respiratory Syncytial Virus test
[26] = CPE Inhibition IC50 (cytotoxic), Respiratory Syncytial Virus test
[27] = CPI Inhibition IC50 (cytotoxic), Parainfluenza Type 3 Virus test
[28] = CPE Inhibition IC50 (50% cell inhibitory (cytotoxic) concentration), Influenza A (H1N1) test
[29] = CPE Inhibition IC50 (cytotoxic), Influenza A (H3N2) test
[30] = CPE Inhibition IC50 (cytotoxic), Influenza B test

O=C1CC(c2ccc(O)cc2)Oc2cc(O)c(-c3c(O)cc4c(c3O)C(=O)CC(c3ccc(O)cc3)O4)c(O)c21 (centres unmarked) [Succedaneaflavanone (11), succedaneaflavanone]
IC50 (in vitro [1]; Influenza A (H1N1) test): 5 µg/mL (≈ 9.22 µM) | IC50 (in vitro [1]; Influenza A (H3N2) test): 12 µg/mL (≈ 22.1 µM) | IC50 (in vitro [1]; Influenza B test): 7 µg/mL (≈ 12.9 µM) | IC50 [2]: 27 µg/mL (≈ 49.8 µM) | HSV-2 SI (CC50/EC50) (HSV-2): <3.0 | EC50 (HSV-2): > 20 µg/mL | VZV SI (CC50/EC50) (VZV): < 3 | VZV SI (CC50/EC50) (VZV; listed as Succedaneaflavone (11)): <3.0 | EC50 (VZV): > 20 µg/mL | EC50 [3]: > 10 µg/mL | EC50 [4]: > 10 µg/mL | IC50 [5]: < 20 µg/mL | EC50 [6]: 5.2 µg/mL (≈ 9.59 µM) | EC50 [7]: > 3.2 µg/mL | anti-HBV activity (in words) (Hepatitis B Virus (HBV)): inactive | anti-HBV activity (in words) (Hepatitis B Virus (HBV); listed as succendaneaflavanone): little or no anti-HBV activity | EC50 (Hepatitis B Virus (HBV)): > 100 µM | EC90 (Hepatitis B Virus (HBV)): > 100 µM | EC50 (Adenovirus Type 5 [8]): 19 µg/mL (≈ 35 µM) | EC50 (Measles Virus [9]): < 12 µg/mL | EC50 (Measles Virus [10]): ~32 µg/mL (≈ 59 µM) | EC50 [11]: 23 µg/mL (≈ 42.4 µM) | EC50 (Influenza B Panama/45/90 [12]): 2.2 µg/mL (≈ 4.06 µM) | EC50 (Influenza B Panama/45/90 [13]): 0.97 µg/mL (≈ 1.79 µM) | activity against HIV-1 RT (in words) (HIV-1 RT): completely inactive | inhibition at 200 µg/mL (HIV-1 RT): 22.1% | Anti-HIV-1 RT IC50 (HIV-1 RT): Inactive | IC50 [14, 24]: ~29 µg/mL (≈ 53.5 µM) | IC50 [14, 25]: ~10 µg/mL (≈ 18.4 µM) | EC50 (Adenovirus Type 5 [15]): 10 µg/mL (≈ 18.4 µM) | EC50 [16]: > 10 µg/mL | IC50 (in vitro [17]; [26]): ~13 µg/mL (≈ 24 µM) | IC50 (in vitro [17]; [27]): ~22 µg/mL (≈ 40.6 µM) | IC50 (in vitro [18]): 22 µg/mL (≈ 40.6 µM) | EC50 [19]: 12 µg/mL (≈ 22.1 µM) | CC50 at 3 days [20]: 60.7 µg/mL (≈ 112 µM) | CC50 at 10 days [20]: 60 µg/mL (≈ 111 µM) | CC50 at 14 days [20]: 55.5 µg/mL (≈ 102 µM) | IC50 (in vitro [21]): < 23 µg/mL | HSV-1 SI (CC50/EC50) (HSV-1): <3.0 | EC50 (HSV-1): > 20 µg/mL | EC50 [22]: ~16 µg/mL (≈ 29.5 µM) | IC50 (in vitro [23]; [28]): 4.9 µg/mL (≈ 9.03 µM) | IC50 (in vitro [23]; [29]): 12 µg/mL (≈ 22.1 µM) | IC50 (in vitro [23]; [30]): 15 µg/mL (≈ 27.6 µM) | HCMV SI (CC50/EC50) (HCMV): <2.7 | EC50 (HCMV): > 20 µg/mL

COc1ccc(-c2cc(=O)c3c(OC)cc(OC)c(C4C(=O)c5c(OC)cc(OC)cc5OC4c4ccc(OC)cc4)c3o2)cc1 (centres unmarked) [Volkensiflavone hexamethyl ether (6), volkensiflavone hexamethyl ether]
IC50 (in vitro [1]; Influenza A (H1N1) test): ~100 µg/mL (≈ 160 µM) | IC50 (in vitro [1]; Influenza A (H3N2) test): ~100 µg/mL (≈ 160 µM) | IC50 (in vitro [1]; Influenza B test): ~100 µg/mL (≈ 160 µM) | IC50 [2]: 50 µg/mL (≈ 80 µM) | HSV-2 SI (CC50/EC50) (HSV-2): 0 | EC50 (HSV-2): > 100 µg/mL | VZV SI (CC50/EC50) (VZV): 3.4 | EC50 (VZV): 3.3 µg/mL (≈ 5.28 µM) | EC50 [3]: ~18 µg/mL (≈ 28.8 µM) | IC50 [5]: < 13 µg/mL | EC50 [6]: ~100 µg/mL (≈ 160 µM) | EC50 [7]: ~100 µg/mL (≈ 160 µM) | anti-HBV activity (in words) (Hepatitis B Virus (HBV)): moderate anti-HBV activity | EC50 (Hepatitis B Virus (HBV)): 11 µM | EC90 (Hepatitis B Virus (HBV)): 108 µM | SI (CC50/EC90), HBV Virion (Hepatitis B Virus (HBV); selective index): 1.3 | EC50 (Adenovirus Type 5 [8]): > 100 µg/mL | EC50 (Measles Virus [9]): < 7 µg/mL | EC50 (Measles Virus [10]): < 70 µg/mL | EC50 [11]: > 32 µg/mL | EC50 (Influenza B Panama/45/90 [12]): < 20 µg/mL | EC50 (Influenza B Panama/45/90 [13]): 2.6 µg/mL (≈ 4.16 µM) | activity against HIV-1 RT (in words) (HIV-1 RT): inactive | inhibition at 200 µg/mL (HIV-1 RT): 0% | Anti-HIV-1 RT IC50 (HIV-1 RT): Inactive | IC50 [14, 24]: ~33 µg/mL (≈ 52.8 µM) | IC50 [14, 25]: ~59 µg/mL (≈ 94.5 µM) | EC50 [16]: ~100 µg/mL (≈ 160 µM) | IC50 (in vitro [17]; [26]): ~30 µg/mL (≈ 48 µM) | IC50 (in vitro [17]; [27]): ~15 µg/mL (≈ 24 µM) | IC50 (in vitro [18]): 47 µg/mL (≈ 75.2 µM) | EC50 [19]: ~100 µg/mL (≈ 160 µM) | HSV-2 CPE Inhibition CC50 (HFF Cells): >100 µg/mL | CC50 at 3 days [20]: > 100 µg/mL | CC50 at 10 days [20]: 11.1 µg/mL (≈ 17.8 µM) | CC50 at 14 days [20]: > 100 µg/mL | IC50 (in vitro [21]): < 60 µg/mL | HSV-1 SI (CC50/EC50) (HSV-1): 0 | EC50 (HSV-1): > 100 µg/mL | EC50 [22]: > 32 µg/mL | IC50 (in vitro [23]; [28]): < 24 µg/mL | IC50 (in vitro [23]; [29]): ~100 µg/mL (≈ 160 µM) | IC50 (in vitro [23]; [30]): ~100 µg/mL (≈ 160 µM) | HCMV SI (CC50/EC50) (HCMV): 0 | EC50 (HCMV): > 100 µg/mL
